Assay results taken from the supplement of paper PMC10307832.

Legend:
Assay in all cases: relative viability (nuclei count vs DMSO), 5 days (fraction); higher = more cells survive
BI-D1870 + OSI-027 = compound: CC(C)CCN1c2nc(Nc3cc(F)c(O)c(F)c3)ncc2N(C)C(=O)C1C [BI-D1870] + COc1cccc2cc(-c3nc([C@H]4CC[C@H](C(=O)O)CC4)n4ncnc(N)c34)[nH]c12 [OSI-027] (partner 0.5 µM)
Procedure, shortened: (§1)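 Relative viability is defined as nuclei in treated wells over nuclei in vehicle wells. Duplicate plates were run and medians reported. Lung cancer cell lines in 1536-well plates were dosed by pin tool one day after seeding, with one drug or with a fixed anchor-drug dose plus five library-drug doses (not always all listed) in √10 steps, and nuclei were counted after 5 days.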

BI-D1870 + Phenformin = compound: CC(C)CCN1c2nc(Nc3cc(F)c(O)c(F)c3)ncc2N(C)C(=O)C1C [BI-D1870] + N=C(N)NC(=N)NCCc1ccccc1 [Phenformin] (partner 250 µM)
Procedure, shortened: as §1

BI-D1870 + Olaparib = compound: CC(C)CCN1c2nc(Nc3cc(F)c(O)c(F)c3)ncc2N(C)C(=O)C1C [BI-D1870] + O=C(c1cc(Cc2n[nH]c(=O)c3ccccc23)ccc1F)N1CCN(C(=O)C2CC2)CC1 [Olaparib] (partner 8 µM)
Procedure, shortened: as §1

Zebularine + Luminespib = compound: O=c1ncccn1[C@@H]1O[C@H](CO)[C@@H](O)[C@H]1O [Zebularine] + CCNC(=O)c1noc(-c2cc(C(C)C)c(O)cc2O)c1-c1ccc(CN2CCOCC2)cc1 [Luminespib] (partner 0.01 µM)
Procedure, shortened: as §1

UMC-11
relative viability (BI-D1870 + OSI-027; first compound 0.04 µM): 0.519 | relative viability (BI-D1870 + OSI-027; first compound 0.1265 µM): 0.48 | relative viability (BI-D1870 + OSI-027; first compound 0.4 µM): 0.479 | relative viability (BI-D1870 + OSI-027; first compound 1.265 µM): 0.406 | relative viability (BI-D1870 + OSI-027; first compound 4 µM): 0.16 | relative viability (BI-D1870 + Phenformin; first compound 0.04 µM): 0.332 | relative viability (BI-D1870 + Phenformin; first compound 0.1265 µM): 0.285 | relative viability (BI-D1870 + Phenformin; first compound 0.4 µM): 0.33 | relative viability (BI-D1870 + Phenformin; first compound 1.265 µM): 0.295 | relative viability (BI-D1870 + Phenformin; first compound 4 µM): 0.183 | relative viability (BI-D1870 + Olaparib; first compound 0.04 µM): 0.36 | relative viability (BI-D1870 + Olaparib; first compound 0.1265 µM): 0.363 | relative viability (BI-D1870 + Olaparib; first compound 0.4 µM): 0.369 | relative viability (BI-D1870 + Olaparib; first compound 1.265 µM): 0.374 | relative viability (BI-D1870 + Olaparib; first compound 4 µM): 0.204 | relative viability (Zebularine + Luminespib; first compound 1 µM): 1.06 | relative viability (Zebularine + Luminespib; first compound 3.162 µM): 0.996 | relative viability (Zebularine + Luminespib; first compound 10 µM): 0.686 | relative viability (Zebularine + Luminespib; first compound 31.62 µM): 0.62 | relative viability (Zebularine + Luminespib; first compound 100 µM): 0.316
